ChEMBL document CHEMBL6177996 (J Med Chem, 2025)
In brackets after ≈: the same amount, converted by molar mass.

Assay: physchem
Settings: water

solubility: 166 µg/mL (≈ 324 µM)
Structure (SMILES): C=CC(=O)NCc1cc(C(=O)NCc2c(SC)cc(C)[nH]c2=O)c(C)c(N(CC)C2CCOCC2)c1
